We go through one compound from patent publication US20220017486A1, “DOCK1-INHIBITING COMPOUND AND USE THEREOF” (KYUSHU UNIVERSITY, NATIONAL UNIVERSITY CORPORATION, priority 2018, published 2022).

pIC50: −log10 of the molar value.

In assay [1] the test system is mouse lung carcinoma cell line (3LL cells). Description: Cell invasion inhibition assay (Matrigel invasion chamber). Format: cell-based. To be noted: 22 hours, DMSO control as 100% invasion. The protocol:
In this Pharmacological Test, the inhibitory effect of each test compound on cell invasion response was evaluated using a mouse lung carcinoma cell line (3LL cells), a mouse pancreatic cancer cell line (PANC02 cells), and a human breast cancer cell line (MDA-MB-157 cells). Of these, the mouse lung carcinoma cell line (3LL) is a cancer cell line with mutant Ras (K-Ras (G12C)), and the human breast cancer cell line (MDA-MB-157) is a cancer cell line with mutant Rac (Rac1 (P29S)). The experiments were performed in BD BioCoat Matrigel invasion chambers (BD Biosciences).
Specifically, an upper chamber with a Matrigel-coated membrane insert (8 μm pores) at the bottom was equilibrated with DMEM (serum-free medium) for 120 minutes. Thereafter, 300 μL of a suspension of a cancer cell line in DMEM (serum-free) was placed in the upper chamber while 500 μL of DMEM (with 10 mass % FCS) was placed in the lower chamber. Each test compound dissolved in DMSO at a predetermined concentration was added to both the culture media in the upper and lower chambers. As a control, DMSO alone was added to both the culture media in the upper and lower chambers. In all of the experiments, the final DMSO concentration in the culture media was adjusted to 0.2 mass %.
The resulting products were cultured under 5% CO2 at 37° C. for 22 hours (3LL and PANC02 cells) or 48 hours (MDA-MB-157 cells). Then, the upper chamber was removed, and the culture medium was removed. Thereafter, non-invading cells remaining in the upper chamber were removed using a cotton swab, and the cells remaining outside the bottom of the upper chamber (cells that had invaded into the Matrigel, and passed through the membrane insert) were stained with Diff-Quick (Sysmex). After staining, the membrane inserts with Matrigel were cut out using a scalpel to prepare slides, and the number of invading cells was counted under an optical microscope.
The results were evaluated based on percent cell invasion (%: Invasion) and percent inhibition (%: Inhibition). The percent cell invasion was obtained by converting the number of invading cells in the presence of each test compound into a percentage, taking the number of invading cells in the control test, in which DMSO was added alone, as 100%; and the percent inhibition was obtained by deducting the percent cell invasion from 100.

The subject of assay [2] is mouse lung carcinoma cell line (3LL). Nature of the assay: Tumor growth of subcutaneously transplanted mouse lung carcinoma cells. It is filed as in vivo, C57BL/6 mice. The settings on record: 3LL s.c. in mice, 0.25 mg/300 μL, day 26 to day 29. On the procedure:
The mouse lung carcinoma cell line (3LL) was suspended in 200 μL of PBS(−), and transplanted (5×10^5 cells per mouse) into the dorsal subcutaneous region of C57BL/6 mice (6 weeks old). To a 6:1:1 mixture of PBS/Cremophor EL/ethanol, RT-22 as a representative of the compounds of the present invention was added to a concentration of 0.25 mg/300 μL, and the resulting mixture was loaded into an SMP-300 micro infusion pump (iPRECIO), which was subcutaneously implanted on the previous day of the transplantation, to perform continuous intravenous administration (n=5 mice). The control group was only administered with an equivalent volume of a solvent (a 6:1:1 mixture of PBS/Cremophor EL/ethanol) (n=6 mice). The transverse and longitudinal diameters of the tumor mass were measured over time for a period of 4 weeks from the start of administration, and the tumor volume (V) was calculated according to the formula: V=π/6x√((transverse diameter×longitudinal diameter)^3).

The target in assay [3] is T1, DOCK1 (DHR-2 domain) (Homo sapiens, UniProt Q14185).
T1 construct: polypeptide fragments corresponding to the DHR-2 domain of DOCK1 or DOCK2 from mice and humans; Histidine-SUMO (N); made in house; host or cells: E. coli Arctic express (DE3)
T1 sequence (Q14185 1207-1617 limits assumed): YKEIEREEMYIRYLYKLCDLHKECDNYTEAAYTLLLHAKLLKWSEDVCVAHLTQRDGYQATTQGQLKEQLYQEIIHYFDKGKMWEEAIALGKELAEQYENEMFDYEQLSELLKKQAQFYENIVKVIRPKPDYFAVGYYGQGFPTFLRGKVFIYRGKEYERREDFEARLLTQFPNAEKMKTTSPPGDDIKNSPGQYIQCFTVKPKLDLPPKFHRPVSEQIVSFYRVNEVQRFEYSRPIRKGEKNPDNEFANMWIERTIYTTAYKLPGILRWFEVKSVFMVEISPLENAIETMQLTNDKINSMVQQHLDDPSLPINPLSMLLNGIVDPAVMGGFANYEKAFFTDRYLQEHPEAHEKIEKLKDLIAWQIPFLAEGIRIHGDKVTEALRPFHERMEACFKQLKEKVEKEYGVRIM
Description: In vitro GEF assay: Rac activation by DOCK1 DHR-2 domain. Format: biochemical, mice and humans. On the procedure: DOCK1 and DOCK2, i.e., DOCK-A subfamily members, both activate Rac by catalyzing the GTP-GDP exchange reaction for Rac via their DHR-2 domains. Therefore, in this Pharmacological Test, the inhibitory effect of the compounds of the present invention on Rac activation by DOCK1 or DOCK2 was assessed in an in vitro GEF assay by using polypeptide fragments corresponding to the DHR-2 domain of DOCK1 or DOCK2 from mice and humans. The in vitro GEF assay was performed using a labeled GTP (Bodipy-FL-GTP, Invitrogen), which has a property of increasing the fluorescence intensity when bound to Rac.
The polypeptide fragments corresponding to the DHR-2 domain of DOCK1 or DOCK2 were prepared by expression in E. coli Arctic express (DE3) cells as N-terminal. Histidine-SUMO tag-fused recombinant proteins, followed by purification by affinity column chromatography on nickel-NTA columns.
Rac was prepared by expression in E. coli BL21 (DE3) cells as an N-terminal GST tag-fused recombinant protein, followed by purification by affinity column chromatography on glutathione-Sepharose columns.
Each of the polypeptide fragments corresponding to the DHR-2 domain of DOCK1 or DOCK2, and a predetermined concentration of each test compound (the compounds of the present invention: 33 types of compounds; and comparative compound: TBOPP) dissolved in DMSO were incubated in a reaction solution A (pH 7.0), which contained 20 mM of MES-NaOH, 150 mM of NaCl, 10 mM of MgCl2, and 20 μM of GDP for 20 minutes at room temperature while being shielded from light to thus prepare GEF pretreated products. The final concentration of DMSO was adjusted to 1 mass % in all of the test samples. For a control test, a GEF pretreated product (control) was prepared by incubation in the same manner using DMSO with no test compounds, instead of the DMSO used above in which each test compound was dissolved.
Separately, Rac was added to the reaction solution A (pH 7.0) to a concentration of 15 μM, and was allowed to stand on for 30 min to form a GDP-Rac complex. Bodipy-FL-GTP was added to a concentration of 3.6 μM to 100 μL of the reaction solution A that contained the thus-prepared GDP-Rac complex, and equilibrated at 30° C. for 2 minutes. After equilibration, 50 μL of the GEF pretreated product prepared as described above was added and reacted at 30° C.
Changes in fluorescence intensity of Bodipy-FL-GTP in the reaction solutions were monitored using an EnSpire spectrofluorometer (Perkin Elmer) (excitation wavelength: 488 nm, fluorescence wavelength: 514 nm). The measured values were corrected so that the fluorescence intensity at the beginning of the reaction (0 sec) was 0. Then, an approximate curve (hyperbola) was obtained by plotting the calculated correction values on the y-axis and the time (t) on the x-axis using GraphPad Prism5 (GraphPad software), and the slope at t=0 to 10 seconds was defined as the initial velocity of the guanine nucleotide exchange reaction. The IC50 value was calculated taking the initial reaction velocity of the control, to which only a solvent (DMSO) was added, as 100%.
Based on the obtained results, columns A and B of FIG. 1, FIG. 2, FIG. 3-1, and FIG. 3-2 show the results evaluating the inhibitory effect on Rac activation by DOCK1 (DHR-2 domain) (IC50 value), and DOCK1-selective inhibitory effect (DOCK1/DOCK2 selectivity) of each test compound. The inhibitory effect on Rac activation by DOCK1 (DHR-2 domain) (IC50 value) was determined from the reaction inhibition curve plotted using values of Rac activation by the DOCK1 DHR-2 domain in the presence of various concentrations of the test compounds, taking the values of the control as 100%. […]

Take `O=C(Cn1cc(S(=O)(=O)N2CCCC2)ccc1=O)c1ccc(-c2cccc(C(F)(F)F)c2)cc1` [TBOPP, 1-(2-oxo-2-(3′-(trifluoromethyl)-[1,1′-biphenyl]-4-yl)ethyl)-5-(pyrrolidin-1-ylsulfonyl)pyridin-2(1H)-one, reference compound]: the “percent cell invasion inhibition” value in assay [1] is reported as 95%. The “tumor size reduced by, compared to the control group” value in assay [2] is given as 21-24%. Further, the “DOCK1-selective inhibitory effect (DOCK1/DOCK2 selectivity)” value in assay [3] (IC50 for DOCK2 divided by IC50 for DOCK1) is on record as 2.6. For the same compound, the negative-log IC50 (pIC50) in assay [3] (in vitro GEF assay, Bodipy-FL-GTP, DMSO control as 100%, read-out: inhibitory effect (IC50 value) on Rac activation by DOCK1 (DHR-2 domain)) is 5.08.
